Source: ChEMBL document CHEMBL1201862, “PubChem BioAssay data set” (2004)
The source made the active and inactive calls.

Key:
[1] = Fluorescence Cell-Based Dose Response to Identify Inhibitors of Thrombin Receptor-Activating Peptide SFLLRN-Mediated P-Selectin Induction on Platelets. [Related pubchem assays: 1663 (Primary HTS), 1889 (retest at dose ), 1891 (counterscreen), 1678 (Project Summary)]; format: functional
[2] = biological target: Luciferin 4-monooxygenase (Photinus pyralis, UniProt P08659); assay: firefly luciferase enzyme inhibitors, dose response, biochemical, luminescence (AID 1891)
[3] = Luminescence Cell-Based Dose Confirmation HTS to Identify Inhibitors of Platelet Dense Granule Release. [Related pubchem assays: 1663 (Primary HTS), 1678 (Summary of Project)]; format: functional
[4] = inhibitors of SFLLRN-triggered platelet P-selectin exposure, dose response, cell-based, fluorescence, flow cytometry, human platelets (AID 2511); format: functional
[5] = biological target: Induced myeloid leukemia cell differentiation protein Mcl-1 (Homo sapiens, UniProt Q07820); assay: MCL1-BIM BH3 interaction inhibitors, dose response, biochemical, fluorescence polarization, BIM-BH3 peptide, 1536-well (AID 2217)
Protein RecA = biological target: T1, Protein RecA (Mycobacterium tuberculosis, UniProt P9WHJ3); assay: Fluorescence Cell-Free Homogeneous Dose Retest to Identify Inhibitors of RecA-Intein Splicing Activity. [Related pubchem assays (depositor defined):AID2097, AID2223, AID489010, AID492950]; format: functional
T1 sequence (P9WHJ3 whole entry): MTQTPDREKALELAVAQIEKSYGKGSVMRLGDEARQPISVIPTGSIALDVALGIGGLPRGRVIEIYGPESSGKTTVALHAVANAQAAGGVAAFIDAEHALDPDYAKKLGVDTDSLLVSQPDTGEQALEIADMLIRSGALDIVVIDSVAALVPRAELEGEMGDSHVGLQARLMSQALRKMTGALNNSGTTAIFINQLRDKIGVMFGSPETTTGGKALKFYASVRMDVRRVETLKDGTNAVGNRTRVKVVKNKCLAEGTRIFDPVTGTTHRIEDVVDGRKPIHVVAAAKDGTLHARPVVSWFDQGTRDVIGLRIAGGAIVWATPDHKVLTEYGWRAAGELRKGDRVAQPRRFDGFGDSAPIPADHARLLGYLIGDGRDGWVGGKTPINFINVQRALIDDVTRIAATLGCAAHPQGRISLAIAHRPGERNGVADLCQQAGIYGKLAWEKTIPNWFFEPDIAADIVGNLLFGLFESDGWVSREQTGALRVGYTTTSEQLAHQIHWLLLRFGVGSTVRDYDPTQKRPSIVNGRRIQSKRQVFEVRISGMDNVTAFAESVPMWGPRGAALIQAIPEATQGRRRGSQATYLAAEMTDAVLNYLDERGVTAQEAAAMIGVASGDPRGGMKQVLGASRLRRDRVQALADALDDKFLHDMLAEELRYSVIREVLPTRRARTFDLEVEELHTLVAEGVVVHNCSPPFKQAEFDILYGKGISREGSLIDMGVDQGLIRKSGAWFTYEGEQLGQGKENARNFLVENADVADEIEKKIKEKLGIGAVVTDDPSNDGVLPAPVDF

[6] = biological target: T2, Replicative DNA helicase DnaB (Mycobacterium tuberculosis, UniProt P9WMR3); assay: DnaB intein splicing inhibitors, dose response, biochemical, cell-free fluorescence (AID 449749); format: functional
T2 sequence (P9WMR3 whole entry): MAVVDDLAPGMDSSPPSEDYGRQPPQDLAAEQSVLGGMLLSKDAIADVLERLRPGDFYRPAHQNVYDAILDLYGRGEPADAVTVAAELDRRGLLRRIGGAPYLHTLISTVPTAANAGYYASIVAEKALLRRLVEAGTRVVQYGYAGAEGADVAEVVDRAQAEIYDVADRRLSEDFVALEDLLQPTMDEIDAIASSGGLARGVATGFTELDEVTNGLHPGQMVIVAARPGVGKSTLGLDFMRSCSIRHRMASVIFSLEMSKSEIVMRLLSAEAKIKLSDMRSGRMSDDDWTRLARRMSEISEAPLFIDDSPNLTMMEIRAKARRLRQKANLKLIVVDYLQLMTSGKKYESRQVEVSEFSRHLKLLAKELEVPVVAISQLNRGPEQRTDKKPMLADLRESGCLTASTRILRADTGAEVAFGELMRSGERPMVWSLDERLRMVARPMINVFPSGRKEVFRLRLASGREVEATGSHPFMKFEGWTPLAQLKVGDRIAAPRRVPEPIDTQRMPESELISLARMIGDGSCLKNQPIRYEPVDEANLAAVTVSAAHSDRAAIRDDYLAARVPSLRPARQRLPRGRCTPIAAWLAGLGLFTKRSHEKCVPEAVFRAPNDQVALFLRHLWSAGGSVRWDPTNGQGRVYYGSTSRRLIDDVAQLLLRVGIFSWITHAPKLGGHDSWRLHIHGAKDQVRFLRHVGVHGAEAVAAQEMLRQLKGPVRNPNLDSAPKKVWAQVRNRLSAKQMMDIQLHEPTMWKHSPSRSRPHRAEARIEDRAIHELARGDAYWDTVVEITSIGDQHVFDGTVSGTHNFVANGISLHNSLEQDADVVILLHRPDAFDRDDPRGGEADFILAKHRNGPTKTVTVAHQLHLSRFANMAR

Bcl-2-like protein 1 = Bcl-2-like protein 1 (Homo sapiens, UniProt Q07817); assay: BCL-XL inhibitors, dose response, selectivity assay for MCL1 inhibitor project, biochemical, fluorescence polarization, 1536-well (AID 2218)
NADPH oxidase 1 = NADPH oxidase 1 (Homo sapiens, UniProt Q9Y5S8); assay: Luminescence-based cell-based dose response assay to identify inhibitors of NADPH oxidase 1 (NOX1).; format: functional
[7] = biological target: T3, Voltage-gated N-type calcium channel alpha-1B subunit/Amyloid beta A4 precursor protein-binding family A member 1 (Homo sapiens, UniProt Q00975+Q02410); format: protein assay
[8] = biological target: T4, Zinc finger protein mex-5 (Caenorhabditis elegans, UniProt Q9XUB2); assay: MEX-5/TCR-2 RNA interaction inhibitors, dose response, biochemical, C. elegans, fluorescence polarization (AID 1960)
T4 sequence (Q9XUB2 whole entry): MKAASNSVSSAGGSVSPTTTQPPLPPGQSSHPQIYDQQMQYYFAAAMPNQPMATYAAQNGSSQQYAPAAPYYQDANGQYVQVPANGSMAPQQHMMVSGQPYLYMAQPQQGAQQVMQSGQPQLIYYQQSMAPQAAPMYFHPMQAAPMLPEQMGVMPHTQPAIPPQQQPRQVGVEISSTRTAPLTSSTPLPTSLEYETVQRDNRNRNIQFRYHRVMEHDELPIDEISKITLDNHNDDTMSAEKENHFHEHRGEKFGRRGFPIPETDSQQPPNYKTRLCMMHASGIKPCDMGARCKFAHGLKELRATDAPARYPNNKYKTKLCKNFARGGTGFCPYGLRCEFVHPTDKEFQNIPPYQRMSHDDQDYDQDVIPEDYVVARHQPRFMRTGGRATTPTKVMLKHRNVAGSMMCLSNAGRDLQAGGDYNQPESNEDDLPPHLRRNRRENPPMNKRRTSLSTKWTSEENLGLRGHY

[9] = biological target: T5, Mannose-6-phosphate isomerase (Homo sapiens, UniProt P34949); assay: inhibitors of human PMI, primary screen, biochemical, fluorescence intensity, coupled assay (AID 1209)
T5 sequence (P34949 whole entry): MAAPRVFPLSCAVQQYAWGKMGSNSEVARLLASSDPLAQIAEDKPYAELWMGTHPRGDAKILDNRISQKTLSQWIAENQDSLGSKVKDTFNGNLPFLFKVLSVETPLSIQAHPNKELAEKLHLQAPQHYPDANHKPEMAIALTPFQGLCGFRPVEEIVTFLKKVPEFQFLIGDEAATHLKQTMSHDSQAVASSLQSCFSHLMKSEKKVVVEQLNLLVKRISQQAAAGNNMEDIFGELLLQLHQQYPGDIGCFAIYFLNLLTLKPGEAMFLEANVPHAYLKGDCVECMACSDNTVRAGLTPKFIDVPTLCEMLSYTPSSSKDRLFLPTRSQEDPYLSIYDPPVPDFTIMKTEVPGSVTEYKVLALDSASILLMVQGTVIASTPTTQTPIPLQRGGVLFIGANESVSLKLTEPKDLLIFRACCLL

[10] = biological target: T3, Voltage-gated N-type calcium channel alpha-1B subunit/Amyloid beta A4 precursor protein-binding family A member 1; format: protein assay; remark: listed apart in the source
[11] = biological target: T6, RNA-binding protein pos-1 (Caenorhabditis elegans, UniProt G5EF15); assay: inhibitors of POS-1/mex-3 RNA binding, dose response, biochemical, fluorescence polarization (AID 1964);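 further: purified POS-1 fused to maltose binding protein made in E. coli; potency of compounds blocking POS-1 binding to fluorescent RNA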
T6 sequence (G5EF15 whole entry): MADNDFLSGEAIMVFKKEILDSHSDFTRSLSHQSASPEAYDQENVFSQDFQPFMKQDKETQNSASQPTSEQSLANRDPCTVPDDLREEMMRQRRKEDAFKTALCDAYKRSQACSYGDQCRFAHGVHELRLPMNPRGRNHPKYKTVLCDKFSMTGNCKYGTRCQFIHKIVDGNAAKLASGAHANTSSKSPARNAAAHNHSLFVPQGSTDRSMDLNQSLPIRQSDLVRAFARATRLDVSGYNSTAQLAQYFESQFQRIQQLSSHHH

[12] = biological target: Protein-tyrosine kinase 2-beta (Homo sapiens, UniProt Q14289);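 further: potency of inhibitors of PYK2 kinase phosphorylation of poly-GT substrate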
[13] = biological target: Arf-GAP with SH3 domain, ANK repeat and PH domain-containing protein 1 (Homo sapiens, UniProt Q9ULH1); format: functional;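 further: biochemical fluorescence polarization dose–response screen measuring inhibition of ASAP1; ASAP1 GAP domain stimulating GTP hydrolysis by truncated human ARF1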
[14] = biological target: T7, Carboxy-terminal domain RNA polymerase II polypeptide A small phosphatase 1 (Homo sapiens, UniProt Q9GZU7); assay: inhibitors of CTDSP1, concentration-response testing, biochemical assay, absorbance-based, actives from ultra-high-throughput screening (AID 540297); format: functional
T7 sequence (Q9GZU7 whole entry): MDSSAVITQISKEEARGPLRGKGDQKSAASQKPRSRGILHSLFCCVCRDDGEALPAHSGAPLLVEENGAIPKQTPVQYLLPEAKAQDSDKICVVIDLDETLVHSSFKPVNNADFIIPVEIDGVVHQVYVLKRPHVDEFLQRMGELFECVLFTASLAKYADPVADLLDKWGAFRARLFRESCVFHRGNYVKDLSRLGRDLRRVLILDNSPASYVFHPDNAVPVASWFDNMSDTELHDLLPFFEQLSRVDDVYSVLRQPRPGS

[15] = biological target: 5-hydroxytryptamine receptor 1E (Homo sapiens, UniProt P28566); assay: Counterscreen assay for S1P3 antagonists: Dose response cell-based high throughput screening assay to identify antagonists of the 5-Hydroxytryptamine Receptor Subtype 1E (5HT1E). [Related pubchem assays: 1429, 485 ]; format: functional
[16] = biological target: Sphingosine 1-phosphate receptor 3 (Homo sapiens, UniProt Q99500); assay: Dose response cell-based high throughput screening assay for antagonists of the Sphingosine 1-Phosphate Receptor 3 (S1P3). [Related pubchem assays: 1429, 485 ]; format: functional
[17] = biological target: T8, Short transient receptor potential channel 4 (Mus musculus, UniProt Q9QUQ5); assay: mouse TRPC4 channel activators, dose response, cell-based, HEK293 TRPC4/mu-opioid, Fluo-4 calcium (AID 434937); format: functional
T8 sequence (Q9QUQ5 whole entry): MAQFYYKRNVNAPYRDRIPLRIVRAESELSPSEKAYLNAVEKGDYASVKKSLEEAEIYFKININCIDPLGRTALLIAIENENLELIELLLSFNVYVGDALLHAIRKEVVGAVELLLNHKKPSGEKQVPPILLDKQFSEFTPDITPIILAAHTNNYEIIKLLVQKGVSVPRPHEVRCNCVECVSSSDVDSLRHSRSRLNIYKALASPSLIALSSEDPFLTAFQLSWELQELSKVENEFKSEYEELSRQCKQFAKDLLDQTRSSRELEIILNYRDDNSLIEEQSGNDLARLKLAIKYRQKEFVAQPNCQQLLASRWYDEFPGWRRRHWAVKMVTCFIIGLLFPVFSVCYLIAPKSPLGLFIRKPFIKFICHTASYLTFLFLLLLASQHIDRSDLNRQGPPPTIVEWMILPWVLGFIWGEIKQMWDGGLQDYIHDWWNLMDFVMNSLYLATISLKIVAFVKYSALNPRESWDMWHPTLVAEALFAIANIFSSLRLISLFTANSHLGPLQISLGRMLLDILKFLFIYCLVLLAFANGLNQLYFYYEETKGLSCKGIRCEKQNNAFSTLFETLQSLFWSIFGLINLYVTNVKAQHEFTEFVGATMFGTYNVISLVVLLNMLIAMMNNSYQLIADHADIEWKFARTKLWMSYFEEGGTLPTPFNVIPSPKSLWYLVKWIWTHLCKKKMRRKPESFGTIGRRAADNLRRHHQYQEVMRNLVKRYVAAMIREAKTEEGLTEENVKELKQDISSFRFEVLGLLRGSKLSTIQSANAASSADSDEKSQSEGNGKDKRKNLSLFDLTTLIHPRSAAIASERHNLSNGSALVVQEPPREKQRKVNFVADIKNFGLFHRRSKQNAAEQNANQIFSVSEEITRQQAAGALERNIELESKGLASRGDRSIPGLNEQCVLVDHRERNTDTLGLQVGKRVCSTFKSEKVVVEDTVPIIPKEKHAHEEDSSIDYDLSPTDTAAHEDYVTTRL

T3 sequence (Q00975 whole entry): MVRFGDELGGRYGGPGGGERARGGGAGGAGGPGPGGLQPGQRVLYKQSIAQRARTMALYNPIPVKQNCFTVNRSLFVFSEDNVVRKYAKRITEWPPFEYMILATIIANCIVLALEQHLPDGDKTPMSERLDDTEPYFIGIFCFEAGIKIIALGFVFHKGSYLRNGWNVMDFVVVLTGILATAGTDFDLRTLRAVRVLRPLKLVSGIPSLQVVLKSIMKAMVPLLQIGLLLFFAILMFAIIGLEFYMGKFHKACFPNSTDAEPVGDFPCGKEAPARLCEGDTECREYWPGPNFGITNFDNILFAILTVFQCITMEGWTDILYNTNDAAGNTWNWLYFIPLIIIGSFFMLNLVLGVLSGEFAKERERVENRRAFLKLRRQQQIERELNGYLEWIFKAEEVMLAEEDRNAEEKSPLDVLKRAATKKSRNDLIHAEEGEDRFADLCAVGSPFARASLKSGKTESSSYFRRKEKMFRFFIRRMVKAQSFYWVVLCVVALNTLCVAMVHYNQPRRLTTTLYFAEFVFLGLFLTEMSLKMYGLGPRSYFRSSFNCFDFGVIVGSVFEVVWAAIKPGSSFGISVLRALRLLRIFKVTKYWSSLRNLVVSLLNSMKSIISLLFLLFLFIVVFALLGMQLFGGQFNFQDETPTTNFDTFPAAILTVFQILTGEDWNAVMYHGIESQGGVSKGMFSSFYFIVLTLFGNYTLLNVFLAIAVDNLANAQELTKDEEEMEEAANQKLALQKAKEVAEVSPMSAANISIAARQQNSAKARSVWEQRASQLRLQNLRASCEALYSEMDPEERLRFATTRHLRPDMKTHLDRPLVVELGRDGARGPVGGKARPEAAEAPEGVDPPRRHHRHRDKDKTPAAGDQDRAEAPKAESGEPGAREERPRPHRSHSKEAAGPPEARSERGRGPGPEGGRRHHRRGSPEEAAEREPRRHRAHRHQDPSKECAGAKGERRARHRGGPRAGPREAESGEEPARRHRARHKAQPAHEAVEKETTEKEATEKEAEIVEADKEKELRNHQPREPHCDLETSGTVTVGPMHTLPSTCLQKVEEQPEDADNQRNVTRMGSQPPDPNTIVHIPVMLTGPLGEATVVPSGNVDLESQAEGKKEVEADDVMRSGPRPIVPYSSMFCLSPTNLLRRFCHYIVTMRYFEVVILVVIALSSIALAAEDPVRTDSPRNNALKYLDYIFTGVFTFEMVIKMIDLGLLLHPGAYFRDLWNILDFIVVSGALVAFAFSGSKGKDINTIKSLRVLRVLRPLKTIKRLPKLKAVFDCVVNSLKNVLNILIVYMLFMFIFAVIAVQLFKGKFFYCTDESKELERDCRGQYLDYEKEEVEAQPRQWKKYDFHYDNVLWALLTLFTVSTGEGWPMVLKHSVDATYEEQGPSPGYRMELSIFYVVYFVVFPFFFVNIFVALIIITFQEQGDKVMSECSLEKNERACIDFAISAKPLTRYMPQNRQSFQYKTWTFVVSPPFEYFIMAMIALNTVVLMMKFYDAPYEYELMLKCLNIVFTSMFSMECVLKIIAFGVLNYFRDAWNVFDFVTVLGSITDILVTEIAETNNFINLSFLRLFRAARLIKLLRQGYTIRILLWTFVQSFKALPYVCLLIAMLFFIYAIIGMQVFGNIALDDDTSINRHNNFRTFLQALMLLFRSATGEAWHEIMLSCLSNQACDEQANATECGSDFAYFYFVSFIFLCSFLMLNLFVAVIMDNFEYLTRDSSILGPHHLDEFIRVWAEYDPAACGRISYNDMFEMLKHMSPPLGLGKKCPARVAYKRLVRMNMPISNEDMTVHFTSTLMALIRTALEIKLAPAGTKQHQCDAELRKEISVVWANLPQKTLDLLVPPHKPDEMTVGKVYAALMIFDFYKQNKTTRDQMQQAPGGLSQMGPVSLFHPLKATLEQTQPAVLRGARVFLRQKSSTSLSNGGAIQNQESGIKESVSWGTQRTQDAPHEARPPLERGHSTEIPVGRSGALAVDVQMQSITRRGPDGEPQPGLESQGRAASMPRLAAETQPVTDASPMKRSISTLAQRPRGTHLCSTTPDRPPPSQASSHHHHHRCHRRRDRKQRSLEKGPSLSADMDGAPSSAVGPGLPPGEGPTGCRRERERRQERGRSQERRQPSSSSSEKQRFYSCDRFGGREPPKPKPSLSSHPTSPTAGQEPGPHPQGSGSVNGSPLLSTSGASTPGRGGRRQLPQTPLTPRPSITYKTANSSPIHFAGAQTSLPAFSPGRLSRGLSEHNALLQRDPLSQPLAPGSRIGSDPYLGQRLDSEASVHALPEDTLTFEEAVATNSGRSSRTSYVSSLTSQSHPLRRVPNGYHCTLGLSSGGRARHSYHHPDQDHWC
T3 sequence (Q02410 whole entry): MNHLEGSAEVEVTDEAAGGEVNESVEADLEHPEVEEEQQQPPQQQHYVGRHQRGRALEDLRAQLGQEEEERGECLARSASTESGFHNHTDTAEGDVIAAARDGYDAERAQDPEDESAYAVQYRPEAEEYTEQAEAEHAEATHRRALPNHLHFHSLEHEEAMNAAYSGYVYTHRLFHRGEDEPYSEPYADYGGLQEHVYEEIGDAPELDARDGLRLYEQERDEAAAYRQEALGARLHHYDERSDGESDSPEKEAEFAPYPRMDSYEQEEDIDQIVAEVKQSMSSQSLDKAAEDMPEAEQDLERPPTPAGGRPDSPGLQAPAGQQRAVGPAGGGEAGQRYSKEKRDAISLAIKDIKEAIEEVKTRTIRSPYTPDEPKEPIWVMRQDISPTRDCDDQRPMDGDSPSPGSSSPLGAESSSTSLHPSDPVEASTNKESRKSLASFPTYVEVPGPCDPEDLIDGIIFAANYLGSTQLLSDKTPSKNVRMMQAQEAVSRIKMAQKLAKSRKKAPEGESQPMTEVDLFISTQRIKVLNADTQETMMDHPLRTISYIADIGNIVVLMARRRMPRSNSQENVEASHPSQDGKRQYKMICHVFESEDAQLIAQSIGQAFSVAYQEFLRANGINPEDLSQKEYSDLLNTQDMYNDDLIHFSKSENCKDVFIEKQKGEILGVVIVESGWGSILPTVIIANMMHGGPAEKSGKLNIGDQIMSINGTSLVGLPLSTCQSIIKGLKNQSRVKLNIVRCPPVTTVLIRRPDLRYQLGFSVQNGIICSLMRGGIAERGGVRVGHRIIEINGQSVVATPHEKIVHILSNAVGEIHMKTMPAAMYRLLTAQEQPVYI
5-hydroxytryptamine receptor 1E, sequence (P28566 whole entry): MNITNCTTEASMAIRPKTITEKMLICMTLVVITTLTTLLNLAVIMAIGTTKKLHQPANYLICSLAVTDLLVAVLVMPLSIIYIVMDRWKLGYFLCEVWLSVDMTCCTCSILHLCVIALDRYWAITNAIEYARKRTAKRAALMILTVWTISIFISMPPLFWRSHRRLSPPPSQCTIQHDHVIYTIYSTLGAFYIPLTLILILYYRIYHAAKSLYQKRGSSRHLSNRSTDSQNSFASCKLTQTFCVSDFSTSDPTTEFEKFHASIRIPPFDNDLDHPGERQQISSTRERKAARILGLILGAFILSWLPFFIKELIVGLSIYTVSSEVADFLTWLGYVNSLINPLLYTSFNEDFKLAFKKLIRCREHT
NADPH oxidase 1, sequence (Q9Y5S8 whole entry): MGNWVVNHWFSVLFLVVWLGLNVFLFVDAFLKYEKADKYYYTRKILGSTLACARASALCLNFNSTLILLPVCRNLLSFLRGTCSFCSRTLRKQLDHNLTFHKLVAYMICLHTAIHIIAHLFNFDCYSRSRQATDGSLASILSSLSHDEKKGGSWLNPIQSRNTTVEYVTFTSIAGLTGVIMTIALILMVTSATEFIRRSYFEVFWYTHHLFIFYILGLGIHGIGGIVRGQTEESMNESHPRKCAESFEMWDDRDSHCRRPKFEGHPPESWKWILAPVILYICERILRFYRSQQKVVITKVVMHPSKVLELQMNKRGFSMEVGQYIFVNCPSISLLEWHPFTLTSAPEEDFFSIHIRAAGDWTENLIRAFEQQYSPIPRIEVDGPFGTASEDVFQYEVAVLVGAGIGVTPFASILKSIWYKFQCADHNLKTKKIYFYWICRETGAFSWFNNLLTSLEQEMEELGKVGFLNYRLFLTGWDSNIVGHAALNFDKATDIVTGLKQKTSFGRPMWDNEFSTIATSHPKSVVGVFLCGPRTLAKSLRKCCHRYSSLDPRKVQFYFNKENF
Sphingosine 1-phosphate receptor 3, sequence (Q99500 whole entry): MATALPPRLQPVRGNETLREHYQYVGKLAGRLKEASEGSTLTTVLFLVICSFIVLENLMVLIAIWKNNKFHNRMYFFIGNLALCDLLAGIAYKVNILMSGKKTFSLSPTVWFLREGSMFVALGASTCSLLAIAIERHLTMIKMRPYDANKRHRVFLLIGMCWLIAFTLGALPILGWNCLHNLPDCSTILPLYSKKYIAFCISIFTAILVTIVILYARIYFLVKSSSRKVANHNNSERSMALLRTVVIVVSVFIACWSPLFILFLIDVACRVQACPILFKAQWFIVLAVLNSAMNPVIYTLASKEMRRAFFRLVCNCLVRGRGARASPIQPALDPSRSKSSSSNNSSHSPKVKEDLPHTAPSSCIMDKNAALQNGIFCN
Induced myeloid leukemia cell differentiation protein Mcl-1, sequence (Q07820 whole entry): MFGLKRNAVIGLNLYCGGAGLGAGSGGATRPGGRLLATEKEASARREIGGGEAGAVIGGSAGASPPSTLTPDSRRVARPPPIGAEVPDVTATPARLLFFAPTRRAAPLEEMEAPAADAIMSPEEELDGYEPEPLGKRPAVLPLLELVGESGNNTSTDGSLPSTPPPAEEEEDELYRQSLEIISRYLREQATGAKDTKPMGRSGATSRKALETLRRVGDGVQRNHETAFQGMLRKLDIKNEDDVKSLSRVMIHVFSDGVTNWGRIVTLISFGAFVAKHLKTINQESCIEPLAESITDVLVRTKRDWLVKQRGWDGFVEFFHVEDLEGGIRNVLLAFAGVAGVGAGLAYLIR
Bcl-2-like protein 1, sequence (Q07817 whole entry): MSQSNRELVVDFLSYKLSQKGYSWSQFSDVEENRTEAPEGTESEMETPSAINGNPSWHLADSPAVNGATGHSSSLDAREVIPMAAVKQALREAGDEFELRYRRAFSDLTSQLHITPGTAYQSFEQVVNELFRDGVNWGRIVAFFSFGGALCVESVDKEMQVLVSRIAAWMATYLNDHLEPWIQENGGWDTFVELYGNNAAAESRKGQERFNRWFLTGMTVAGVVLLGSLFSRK

O=C(Nc1cccc(NC(=O)c2ccccc2Cl)c1)c1ccco1
EC50 [1]: < 1 µM (active)
EC50 [2]: > 112 µM (not active)
EC50 [3]: 5.86 µM (active)
EC50 [4]: < 300 nM (active)

CC(=O)OCCCNc1cc(SCc2ccco2)c2nonc2c1[N+](=O)[O-]
IC50 [5]: > 36.3 µM (not active)
EC50 (Protein RecA): 3.49 µM (active)
AC50 [6]: 4.6 µM (active)
IC50 (Bcl-2-like protein 1): > 109 µM (not active)

CC(=O)N1c2ccccc2Sc2ccccc21
IC50 (NADPH oxidase 1): 4.57 µM (active)

NC1=CC(=O)c2cccc3cccc1c23
IC50 [7]: 12.7 µM (active)
EC50 [8]: 1.98 µM (inconclusive)
IC50 [9]: 16.7 µM (active)
IC50 [10]: > 50 µM (inactive)
EC50 [11]: 7.46 µM (inconclusive)

O=C(N/N=C/C=C/c1ccc([N+](=O)[O-])cc1)c1cccs1
EC50 [8]: 53.6 µM (active)
IC50 [12]: 6.61 µM (active)
IC50 [13]: 20.7 µM (inactive)
EC50 [11]: > 300 µM (not active)
IC50 [14]: 4.28 µM (active)

O=C(CCCN1CCC2(CC1)C(=O)NCN2c1ccccc1)c1ccc(F)cc1 [SPIPERONE]
IC50 [15]: > 50 µM (not active)
IC50 [16]: > 50 µM (not active)
EC50 [17]: 6.68 µM (active)
